Molecular target: T1, MurC (Acinetobacter baumannii, UniProt A3M9Y0)
T1 construct: full length, N-terminal 6xHis tag removed by TEV protease, E. coli BL21(DE3)
Test: HPLC of UMA formation
Format: biochemical
Conditions: 200 µM UDP-MurNAc, 1 mM L-alanine, 1 mM ATP, 2 mM MgCl2, pH 7.4, 37 °C

T1 sequence (A3M9Y0 whole entry): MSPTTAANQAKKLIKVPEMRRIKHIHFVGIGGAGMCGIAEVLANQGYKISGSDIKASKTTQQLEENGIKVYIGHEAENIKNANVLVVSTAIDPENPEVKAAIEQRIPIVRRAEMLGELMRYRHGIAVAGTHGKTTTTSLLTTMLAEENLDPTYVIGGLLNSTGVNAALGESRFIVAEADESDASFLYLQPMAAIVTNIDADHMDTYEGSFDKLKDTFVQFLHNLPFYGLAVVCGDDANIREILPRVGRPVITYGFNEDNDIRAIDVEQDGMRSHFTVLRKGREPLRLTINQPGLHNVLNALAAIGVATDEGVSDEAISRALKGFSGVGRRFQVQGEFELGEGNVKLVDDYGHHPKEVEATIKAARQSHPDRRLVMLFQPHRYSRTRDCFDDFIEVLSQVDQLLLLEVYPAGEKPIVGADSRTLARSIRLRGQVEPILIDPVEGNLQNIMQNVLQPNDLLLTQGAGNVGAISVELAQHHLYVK

CC(=O)N[C@H]1[C@@H](OP(=O)(O)OP(=O)(O)OC[C@H]2O[C@@H](n3ccc(=O)[nH]c3=O)[C@H](O)[C@@H]2O)O[C@H](CO)[C@@H](O)[C@@H]1O[C@H](C)C(=O)O [UDP-MurNAc]
HPLC of UMA formation: MurC and MurD activity were quantified by measuring MurC product, UMA
